Test results taken from PMC9332802, “Structure–Activity Relationship of New Chimeric Analogs of Mastoparan from the Wasp Venom Paravespula lewisii” (International Journal of Molecular Sciences, 2022).
≈ marks a conversion by molar mass, not a printed value. Ends that are not written are not given here.

How the values were obtained:
[1] = test system: Pseudomonas aeruginosae NCTC 6749; assay: microbe, parasite or virus in culture; format: cell-based; conditions: broth microdilution (CLSI), Mueller–Hinton broth, 37 °C, peptide 0.125 to […], no visible growth, triplicate
Procedure: (§1) Antimicrobial activity of peptides was examined against three reference strains: Staphylococcus aureus NCTC 4163, Escherichia coli NCTC 8196 and Pseudomonas aeruginosae NCTC 6749 dedicated for the determination of antibacterial activity. The bacterial strains were stored in glycerol stock (Sigma-Aldrich, St. Louis, MO, USA) at −80 °C. Before testing, the strains were cultured aerobically in Tryptic Soy Agar (BD DIFCO, Franklin Lakes, NJ, USA) at 37 °C for 20 h. The susceptibility of microorganisms to the peptides was determined by the broth microdilution assay according to the procedures outlined by CLSI [49]. […] In order to prepare the bacterial suspension, an overnight culture of bacteria in Tryptic Soy Broth (BD DIFCO, Franklin Lakes, NJ, USA) was diluted in sterile saline to a final concentration of approximately 10^7 CFU/mL of bacteria. Aliquots (5 µL) of bacterial suspension were added to each peptide solution. The sterility control (containing the tested peptide in broth) and the growth control (containing the reference strain in broth without the tested peptide) were also set up. The plates were incubated at 37 °C under aerobic conditions. The results are expressed as the minimal inhibitory concentration (MIC) of the compounds in question. The MIC was defined as the lowest concentration at which no visible growth of bacteria (no turbidity) was observed. The assay was performed in triplicate.

HCT116 cells = assay: MTT cytotoxicity assay; format: cell-based, human; conditions: for Effect on cell viability up to 10 µM: 24 h, peptide up to 10 µM; for LD50 (peptide concentration sufficient to kill 50% of the peptide-treated cells): 24 h incubation, 0.05–50 µM, from regression curves of cell viability, triplicate
Procedure: (§2) The cytotoxicity of the selected MP analogs, MP-RIP and RIP-MP, was determined against two human cell lines. The viability of HT29 and HCT116 cells incubated with various concentrations of MP-RIP and RIP-MP was assessed by the MTT assay (Figure 4). […] Moreover, based on the regression curves of cell viability, lethal doses of MP analogs sufficient to kill 50% of the peptide-treated cells (LD50) were calculated. […] The viability of the HT29 cells indicates relatively low cytotoxicity of both analogs at a concentration corresponding to the MIC value against S. aureus. In the case of HCT116 cells, the above relationships were less evident.
(§3) Human cell lines HT29 (ATCC cat. # HTB-38) and HCT116 (ATCC cat. # CCL-247) were cultured in McCoy (HT29) or Dulbecco’s Modified Eagle’s (DMEM) medium (HCT116), supplemented with 10% fetal bovine serum (FBS), penicillin (100 U/mL) and streptomycin (100 µg/mL). Cultures were conducted at 37 °C in humidified atmosphere of 5% CO2. Cells were cultured for 24 h before initiation of the experiments. The cell viability was determined by the 3-(4, 5-dimethylthazol-2-yl)-2, 5-diphenyl tetrazolium bromide (MTT) assay. Briefly, HT29 or HCT116 cells were seeded in 96-well plates to a density of 10^5 cells/well in 0.2 mL of above-specified culture media. After 24 h, the following concentrations of peptides were added to wells: 0.05, 0.1, 0.5, 1, 5, 10, 25, 50 µM. As a negative control, cells were treated with 0.9% NaCl. After 24 h of incubation (5% CO2, 37 °C), 15 µL MTT solution was added into each well to reach the final concentration of […]. After further incubation for 2 h (5% CO2, 37 °C) the cells were centrifuged for 3 min at 4 °C and the medium was removed. Formazan crystals present in mitochondria of metabolically active cells were dissolved with 100 μL of dimethylsulfoxide (DMSO), and the dye concentration was determined at 570 nm wavelength. Cell viability was expressed as a percentage (mean value ± SEM) of those cells treated with 0.9% NaCl as negative control. Lethal doses, which correspond to peptide concentrations sufficient to kill 50% of the peptide-treated cells (LD50), were determined with GraphPad Prism 7.0 software (GraphPad Software Inc., La Jolla, CA, USA). The assay was performed in triplicate.

HT29 cells = assay: MTT cytotoxicity assay; format: cell-based, human; conditions: for Effect on cell viability up to 10 µM: 24 h, peptide up to 10 µM; for LD50 (peptide concentration sufficient to kill 50% of the peptide-treated cells): 24 h incubation, 0.05–50 µM, from regression curves of cell viability, triplicate
Procedure: as §2, §3

[2] = Circular dichroism spectroscopy, relative α-helix fraction; format: physicochemical; conditions: CD, peptide 0.15 mg/mL, 25 °C, three scans averaged; for Relative α-helix fraction (fH), 0.1 M Tris + 50 mM SDS: 0.1 M Tris buffer pH 7.01 + 50 mM SDS, from mean residue ellipticity at 222 nm; for Relative α-helix fraction (fH), 50% TFE / Relative α-helix fraction (fH), water: from mean residue ellipticity at 222 nm (Rohl and Baldwin)
Procedure: Circular dichroism spectroscopy was applied to evaluate the conformational changes of peptides induced by membrane-mimetic environments. The secondary structures of MP and some of its MP analogs (Table 4) were determined in water, 50% 2,2,2-trifluoroethanol (TFE) and 0.1 M Tris buffer with the addition of 50 mM SDS. The relative α-helix fraction (fH) values presented in Table 4, calculated from the values of mean residue ellipticity at 222 nm, reflect the ability of peptides to adopt helical structure in the tested environments.
Circular dichroism (CD) spectra of peptides were recorded on a Jasco J-815 spectropolarimeter (Jasco Int. Co., Ltd., Tokyo, Japan). The CD spectra were acquired for peptides in a concentration of 0.15 mg/mL in water, 50% 2,2,2-trifluoroethanol (TFE) or 0.1 M tris(hydroxymethyl)aminomethane (Tris) buffer (pH 7.01) with the addition of 50 mM SDS (sodium dodecylsulphate) in 0.1 cm path length cuvettes. Measurements were taken at 25 °C in a spectral range of 193–260 nm with a bandwidth of 1 nm and response of 1 s. The spectra were averaged after three scans. Ellipticity was measured in mdeg units and converted to mean residue ellipticity (Θ). The relative helix content (fH) was calculated from the mean residue ellipticity values at 222 nm using the method proposed by Rohl and Baldwin [50] and described previously. Helical wheel projections (Figure 3) were made with HeliQuest https://heliquest.ipmc.cnrs.fr/ (accessed on 1 June 2022).

[3] = test system: Staphylococcus aureus NCTC 4163; assay: microbe, parasite or virus in culture; format: cell-based; conditions: broth microdilution (CLSI), Mueller–Hinton broth, 37 °C, peptide 0.125 to […], no visible growth, triplicate
Procedure: as §1

[4] = test system: Escherichia coli NCTC 8196; assay: microbe, parasite or virus in culture; format: cell-based; conditions: broth microdilution (CLSI), Mueller–Hinton broth, 37 °C, peptide 0.125 to […], no visible growth, triplicate
Procedure: as §1

[5] = cited from earlier work
Excerpt: However, comparing their cytotoxic properties with other MP analogs known from the previous literature reports appears to be difficult due to the different cell lines used in cytotoxicity assays.

Compound	MIC P. aeruginosae [1] [µg/mL]	Effect on cell viability up to 10 µM (HCT116 cells)	LD50 (peptide concentration sufficient to kill 50% of the peptide-treated cells) (HCT116 cells) [µM]	Effect on cell viability up to 10 µM (HT29 cells)	LD50 (peptide concentration sufficient to kill 50% of the peptide-treated cells) (HT29 cells) [µM]	Relative α-helix fraction (fH), 0.1 M Tris + 50 mM SDS [2]	Relative α-helix fraction (fH), 50% TFE [2]	Relative α-helix fraction (fH), water [2]	MIC S. aureus [3] [µg/mL]	MIC E. coli [4] [µg/mL]	Fold lower cytotoxicity than MP [5] [fold]
INLKALAALAKKILYSPWTNF-NH2 [MP-RIP]	>256	did not substantially affect the viability	13.2	did not substantially affect the viability	38.0						
YSPWTNFINLKALAALAKKIL-NH2 [RIP-MP]	>256	did not substantially affect the viability	17.0	did not substantially affect the viability	30.2						
CC[C@H](C)[C@H](NC(=O)[C@H](CCCCN)NC(=O)CNC(=O)[C@H](CC(C)C)NC(=O)[C@H](CC(C)C)NC(=O)[C@H](Cc1ccc(O)cc1)NC(=O)CNC(=O)[C@H](C)N)C(=O)N[C@@H](CC(N)=O)C(=O)N[C@@H](CC(C)C)C(=O)N[C@@H](CCCCN)C(=O)N[C@@H](C)C(=O)N[C@@H](CC(C)C)C(=O)N[C@@H](C)C(=O)N[C@@H](C)C(=O)N[C@@H](CC(C)C)C(=O)N[C@@H](C)C(=O)N[C@@H](CCCCN)C(=O)N[C@@H](CCCCN)C(=O)N[C@H](C(=O)N[C@@H](CC(C)C)C(=O)N[C@@H](Cc1ccc(O)cc1)C(=O)N[C@@H](CO)C(=O)N1CCC[C@H]1C(=O)N[C@@H](Cc1c[nH]c2ccccc12)C(=O)N[C@H](C(=O)N[C@@H](CC(N)=O)C(=O)N[C@@H](Cc1ccccc1)C(N)=O)[C@@H](C)O)[C@@H](C)CC [TP10-RIP]	>256					0.25	0.27	0.08	128 (≈ 41.6 µM)	>256	
CC[C@H](C)[C@H](NC(=O)[C@H](CCCCN)NC(=O)CNC(=O)[C@H](CC(C)C)NC(=O)[C@H](CC(C)C)NC(=O)[C@H](Cc1ccc(O)cc1)NC(=O)CNC(=O)[C@H](C)N)C(=O)N[C@@H](CC(N)=O)C(=O)N[C@@H](CC(C)C)C(=O)N[C@@H](CCCCN)C(=O)N[C@@H](C)C(=O)N[C@@H](CC(C)C)C(=O)N[C@@H](C)C(=O)N[C@@H](C)C(=O)N[C@@H](CC(C)C)C(=O)N[C@@H](C)C(=O)N[C@@H](CCCCN)C(=O)N[C@@H](CCCCN)C(=O)N[C@H](C(=O)N[C@@H](CC(C)C)C(=O)N[C@@H](Cc1ccc(O)cc1)C(=O)N[C@@H](CCCCN)C(=O)N1CCC[C@H]1C(=O)N[C@H](C(=O)N[C@H](C(=O)N[C@@H](CC(N)=O)C(=O)N[C@@H](Cc1ccccc1)C(N)=O)[C@@H](C)O)[C@@H](C)CC)[C@@H](C)CC [TP10-[Lys^2, Ile^4] RIP]	>256					0.31	0.29	0.08	128 (≈ 42 µM)	>256	
LIKKALAALAKLNI-NH2 [retroMP, reference compound]	256					0.16		0.19	>256	256	3.5
